From patent US10703971B2, “Chemiluminescent substrates” (Beckman Coulter, Inc., priority 2016, dated 2020)

How the values were obtained:
alkaline phosphatase [1] = assay: Alternative cationic aromatic compounds, Imax on Turner 20/20e luminometer; settings: compound used as cationic aromatic compound (CAC) in the formulation
[2] = system: Beckman Coulter System Check ALP; assay: Stability of chemiluminescent compounds I in two buffer systems, signal RLU of samples stored at two temperatures; type: biochemical
Description: 3.25 mg/L Lucigenin, 10 mg/L Sodium Sulfite. The second was based on the present invention and included AMPD 0.1 M pH 9.70 containing 0.5 g/L STS, 1 g/L PEG (Mw=35,000), 3.25 mg/L Lucigenin, 10 mg/L Sodium Sulfite. Various chemiluminescent compounds I shown below were added to 200 mL aliquots of each buffer at 0.15 g/L.
Each formulation was split into ˜100 mL halves with one kept at ˜5° C. and the other kept at −30° C.
Material was tested periodically over two weeks measuring the relative change in signal RLU between the two storage conditions. Formulations were tested in 96-well plates by comparing samples at stored at two temperatures to reduce the variability associated with enzymes/temperature/day to day. The samples were incubated at 37° C. for 30 minutes on the instrument 20 uL of enzyme (prepared by mixing 1 mL of Beckman Coulter System Check ALP with 640 mL of the Sample Diluent Buffer) were injected into 200 uL of formulation. Kinetic signal was measured at ˜29 seconds after injection of ALP solution. 15-16 data points (wells) were measured for each Buffer/Temperature/Time point (Well A1 is excluded due to variation in injection volume).

alkaline phosphatase [3] = assay: Stability Test A: luminescence of the AP substrate formulation in a micro-titer plate after injection of AP; type: biochemical; settings: 50% more of the named component added to a single lot of APS-5
Description: An aliquot (100 μL) of AP substrate formulation was added to a micro-titer plate well (8 replicates for each formulation). The plate was placed in a luminescence plate reader (Luminoskan, Labtech) and to each well was injected 20 μL of AP solution (2 ng/mL). Luminescence signal was read after 30 seconds and intergraded for 2 seconds.

Structure (SMILES) | I max RLU (Turner 20/20e luminometer with filter) (alkaline phosphatase [1]) | further results
C[n+]1c2ccccc2c(-c2c3ccccc3[n+](C)c3ccc(Cl)cc23)c2cc(Cl)ccc21 | 454 RLU | 
C[n+]1c2ccccc2c(-c2c3ccccc3[n+](C)c3ccc(Cl)cc23)c2ccccc21 | 1600 RLU | 
C[n+]1c2ccccc2c(-c2c3ccccc3cc3ccccc23)c2cc(Cl)ccc21 | 1037 RLU | 
C[n+]1ccc2c(c1-c1c3c(cc[n+]1C)=CCCC=3)=CCCC=2 | 41 RLU | 
C1=c2cc[n+]3c(c2=CCC1)-c1c2c(cc[n+]1CC3)=CCCC=2 | 500 RLU | 
CN1c2ccccc2C(=C(OP(=O)(O)O)Sc2ccccc2)c2ccccc21 [Compound 3] |  | Signal Loss at 30° C. (slope, % loss/Day) ([2]; 0.15 g/L compound in AMPD buffer system (AMPD 0.1 M pH 9.70, STS, PEG 35,000, lucigenin, sodium sulfite)): 0.53% loss/Day; Signal Loss at 30° C. (slope, % loss/Day) ([2]; 0.15 g/L compound in TRIS-Tween buffer system (Tris 0.3 M pH 9.35, SDS, Tween-20, lucigenin, sodium sulfite)): 0.61% loss/Day
CCCCCCCCCCCCOS(=O)(=O)[O-].[Na+] [SDS, sodium dodecyl sulfate] |  | Performance (alkaline phosphatase [3]): 70.5%
O=S([O-])[O-].[Na+].[Na+] [Sodium Sulfite, sodium sulfite] |  | Performance (alkaline phosphatase [3]): 100.1%
